Results as given in US20230233569A1 (Revolution Medicines, Inc., priority 2020, published 2023).
Read-outs that look alike come from different tables or passages of the source.

Legend:
[1] = biological target: KRAS G12C (Homo sapiens, UniProt P01116+P62937, G12C); assay: Ras-Raf disruption / FRET / MOA assay (BRAF RBD); format: biochemical; settings: with Cyclophilin A
How it was run: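 His6-K-Ras G12C-GMPPNP (12.5 nM), GST-BRAF RBD (50 nM) and tagless Cyclophilin A (25 μM) incubated 3 h at 25 °C with compound (10-point 3-fold series from 30 μM), pH 7.3 HEPES buffer. Anti-His Eu/anti-GST APC added for 1.5 h; decreased TR-FRET ratio vs DMSO gives IC50.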

[2] = biological target: KRAS WT (Homo sapiens, UniProt P01116+P62937); assay: Ras-Raf disruption / FRET / MOA assay (BRAF RBD); format: biochemical; settings: with Cyclophilin A
Sequence of KRAS WT (P01116 1-169 isoform P01116-2 limits assumed): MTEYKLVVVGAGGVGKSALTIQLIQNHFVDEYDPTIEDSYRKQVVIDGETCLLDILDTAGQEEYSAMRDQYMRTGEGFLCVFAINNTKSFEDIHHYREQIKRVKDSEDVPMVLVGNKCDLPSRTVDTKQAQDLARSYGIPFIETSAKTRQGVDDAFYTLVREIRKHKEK
Sequence of KRAS WT (P62937 whole entry): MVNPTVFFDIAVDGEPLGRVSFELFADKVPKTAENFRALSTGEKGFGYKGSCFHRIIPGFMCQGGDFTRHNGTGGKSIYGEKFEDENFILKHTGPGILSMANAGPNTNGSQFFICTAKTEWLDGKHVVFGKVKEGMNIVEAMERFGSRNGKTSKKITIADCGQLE
How it was run: (§1)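 TR-FRET in 25 mM HEPES pH 7.3, 100 mM NaCl, 5 mM MgCl2, 0.1% BSA, 0.002% Tween20 with 25 μM Cyclophilin A, 12.5 nM His6-Ras-GMPPNP, 50 nM GST-BRAF RBD; compound 10-point 3-fold series from 30 μM. After 3 h at 25 °C, Eu anti-His/APC anti-GST added for 1.5 h; IC50 from ratio decrease versus DMSO.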

[3] = biological target: NRAS G12C (Homo sapiens, UniProt P01111+P62937, G12C); assay: Ras-Raf disruption / FRET / MOA assay (BRAF RBD); format: biochemical
Sequence of NRAS G12C (P01111 whole entry G12C): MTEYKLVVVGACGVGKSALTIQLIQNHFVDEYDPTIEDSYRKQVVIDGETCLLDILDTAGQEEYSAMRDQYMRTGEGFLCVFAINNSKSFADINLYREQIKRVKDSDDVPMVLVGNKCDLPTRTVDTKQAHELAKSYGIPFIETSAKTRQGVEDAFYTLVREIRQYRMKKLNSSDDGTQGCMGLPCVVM
Sequence of NRAS G12C (P62937 whole entry): as the sequence (P62937 whole entry) above
How it was run: as §1

[4] = biological target: KRAS G12S (Homo sapiens, UniProt P01116+P62937, G12S); assay: Ras-Raf disruption / FRET / MOA assay (BRAF RBD); format: biochemical; settings: with Cyclophilin A
Sequence of KRAS G12S (P01116 1-169 isoform P01116-2 G12S limits assumed): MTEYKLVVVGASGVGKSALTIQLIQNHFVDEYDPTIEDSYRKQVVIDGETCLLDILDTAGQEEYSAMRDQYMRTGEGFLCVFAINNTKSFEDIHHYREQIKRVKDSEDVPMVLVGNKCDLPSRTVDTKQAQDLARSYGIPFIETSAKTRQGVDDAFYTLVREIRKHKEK
Sequence of KRAS G12S (P62937 whole entry): as the sequence (P62937 whole entry) above
How it was run: as §1

[5] = biological target: KRAS G12V (Homo sapiens, UniProt P01116+P62937, G12V); assay: Ras-Raf disruption / FRET / MOA assay (BRAF RBD); format: biochemical; settings: with Cyclophilin A
Sequence of KRAS G12V (P01116 1-169 isoform P01116-2 G12V limits assumed): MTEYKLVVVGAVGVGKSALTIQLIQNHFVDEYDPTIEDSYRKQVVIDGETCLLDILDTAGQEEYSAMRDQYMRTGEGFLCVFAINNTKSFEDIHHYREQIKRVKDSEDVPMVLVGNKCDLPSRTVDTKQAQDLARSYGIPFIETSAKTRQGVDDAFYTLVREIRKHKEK
Sequence of KRAS G12V (P62937 whole entry): as the sequence (P62937 whole entry) above
How it was run: as §1

[6] = biological target: KRAS G13D (Homo sapiens, UniProt P01116+P62937, G13D); assay: Ras-Raf disruption / FRET / MOA assay (BRAF RBD); format: biochemical; settings: with Cyclophilin A
Sequence of KRAS G13D (P01116 1-169 isoform P01116-2 G13D limits assumed): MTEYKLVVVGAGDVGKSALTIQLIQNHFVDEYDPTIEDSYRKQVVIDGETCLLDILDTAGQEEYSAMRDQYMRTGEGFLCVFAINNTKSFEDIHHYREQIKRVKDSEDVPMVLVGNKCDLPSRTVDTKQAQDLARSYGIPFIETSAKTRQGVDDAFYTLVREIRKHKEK
Sequence of KRAS G13D (P62937 whole entry): as the sequence (P62937 whole entry) above
How it was run: as §1

[7] = biological target: KRAS G13C (Homo sapiens, UniProt P01116+P62937, G13C); assay: Ras-Raf disruption / FRET / MOA assay (BRAF RBD); format: biochemical; settings: with Cyclophilin A
Sequence of KRAS G13C (P01116 1-169 isoform P01116-2 G13C limits assumed): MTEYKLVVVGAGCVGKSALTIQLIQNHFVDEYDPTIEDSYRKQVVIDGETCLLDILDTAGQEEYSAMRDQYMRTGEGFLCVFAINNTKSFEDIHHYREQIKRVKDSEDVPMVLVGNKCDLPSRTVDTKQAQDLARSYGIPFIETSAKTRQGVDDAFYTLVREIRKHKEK
Sequence of KRAS G13C (P62937 whole entry): as the sequence (P62937 whole entry) above
How it was run: as §1

[8] = biological target: KRAS G12D (Homo sapiens, UniProt P01116+P62937, G12D); assay: Ras-Raf disruption / FRET / MOA assay (BRAF RBD); format: biochemical; settings: with Cyclophilin A
Sequence of KRAS G12D (P01116 1-169 isoform P01116-2 G12D limits assumed): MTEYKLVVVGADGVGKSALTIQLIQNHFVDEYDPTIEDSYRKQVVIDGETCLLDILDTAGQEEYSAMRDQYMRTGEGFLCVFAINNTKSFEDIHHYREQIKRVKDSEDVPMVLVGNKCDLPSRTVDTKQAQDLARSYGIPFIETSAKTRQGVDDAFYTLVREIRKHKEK
Sequence of KRAS G12D (P62937 whole entry): as the sequence (P62937 whole entry) above
How it was run: as §1

[9] = tested on: NCI-H358 (K-Ras G12C); assay: CellTiter-Glo cell viability assay; format: cell-based; settings: Homo sapiens, NCI-H358, 120 h
How it was run: (§2)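 Luminescence from CellTiter-Glo serves as the viability read-out after cells are treated with compound for 5 days. Each well's signal is divided by the DMSO average and multiplied by 100, and curves are fitted by four-parameter logistic regression.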

[10] = tested on: AsPC-1 (K-Ras G12D); assay: Potency assay: pERK; format: cell-based; settings: Homo sapiens, ASPC1, read-out: pERK EC50
[11] = tested on: 4EBP1 (Thr37/46) phosphorylation (mTORC1) in MDA-MB-468 cells; assay: Cell based AlphaLISA assay, mTOR kinase cellular assay: inhibition of p-4E-BP1 (T37/46) in MDA-MB-468 cells; settings: Homo sapiens, read-out: pIC50 for Inhibition of mTORC1 and mTORC2 Substarte Phosphorylation p-4E-BP1-(T37/46) (converted)
Experimental: (§3) Cell Based AlphaLISA Assays for Determining IC50 For Inhibition of P-Akt (S473), P-4E-BP1 (T37/46), and P-P70S6K (T389) in MDA-MB-468 Cells
(§4) mTOR Kinase Cellular Assay
(§5) To measure functional activity of mTORC1 and mTORC2 in cells the phosphorylation of 4EBP1 (Thr37/46) and P70S6K (Thr389), and AKT1/2/3 (Ser473) was monitored using AlphaLisa SureFire Ultra Kits (Perkin Elmer). MDA-MB-468 cells (ATCC® HTB-132) were cultured in 96-well tissue culture plates and treated with compounds in the disclosure at concentrations varying from 0.017-1,000 nM for two to four hours at 37° C. Incubations were terminated by removal of the assay buffer and addition of lysis buffer provided with the assay kit. Samples were processed according to the manufacturer's instructions. The Alpha signal from the respective phosphoproteins was measured in duplicate using a microplate reader (Envision, Perkin-Elmer or Spectramax M5, Molecular Devices). Inhibitor concentration response curves were analyzed using normalized IC50 regression curve fitting with control based normalization.

[12] = tested on: AKT1/2/3 (Ser473) phosphorylation (mTORC2) in MDA-MB-468 cells; assay: Cell based AlphaLISA assay, mTOR kinase cellular assay: inhibition of p-Akt (S473) in MDA-MB-468 cells; settings: Homo sapiens, read-out: pIC50 for Inhibition of mTORC1 and mTORC2 Substarte Phosphorylation p-AKT1/2/3-(S473) (converted)
Experimental: as §3, §4, §5

[13] = tested on: AsPC-1 (K-Ras G12D); assay: CellTiter-Glo cell viability assay; format: cell-based; settings: Homo sapiens, ASPC1, 120 h
How it was run: as §2

[14] = biological target: NRAS Q61R (Homo sapiens, UniProt P01111+P62937, Q61R); assay: Ras-Raf disruption / FRET / MOA assay (BRAF RBD); format: biochemical; settings: NRAS Q61R; read-out: NRAS Q61R FRET data IC50
Sequence of NRAS Q61R (P01111 whole entry Q61R): as the sequence (P01111 whole entry G12C) above, with C12G, Q61R counted along it
Sequence of NRAS Q61R (P62937 whole entry): as the sequence (P62937 whole entry) above
How it was run: as §1

[15] = biological target: NRAS WT (Homo sapiens, UniProt P01111+P62937); assay: Ras-Raf disruption / FRET / MOA assay (BRAF RBD); format: biochemical; settings: NRAS WT; read-out: NRAS WT FRET data IC50
Sequence of NRAS WT (P01111 whole entry): as the sequence (P01111 whole entry G12C) above, with C12G counted along it
Sequence of NRAS WT (P62937 whole entry): as the sequence (P62937 whole entry) above
How it was run: as §1

[16] = biological target: NRAS Q61K (Homo sapiens, UniProt P01111+P62937, Q61K); assay: Ras-Raf disruption / FRET / MOA assay (BRAF RBD); format: biochemical; settings: NRAS Q61K; read-out: NRAS Q61K FRET data IC50
Sequence of NRAS Q61K (P01111 whole entry Q61K): as the sequence (P01111 whole entry G12C) above, with C12G, Q61K counted along it
Sequence of NRAS Q61K (P62937 whole entry): as the sequence (P62937 whole entry) above
How it was run: as §1

[17] = biological target: KRAS Q61H (Homo sapiens, UniProt P01116+P62937, Q61H); assay: Ras-Raf disruption / FRET / MOA assay (BRAF RBD); format: biochemical; settings: KRAS Q61H; read-out: KRAS Q61H FRET data IC50
Sequence of KRAS Q61H (P01116 1-169 isoform P01116-2 Q61H limits assumed): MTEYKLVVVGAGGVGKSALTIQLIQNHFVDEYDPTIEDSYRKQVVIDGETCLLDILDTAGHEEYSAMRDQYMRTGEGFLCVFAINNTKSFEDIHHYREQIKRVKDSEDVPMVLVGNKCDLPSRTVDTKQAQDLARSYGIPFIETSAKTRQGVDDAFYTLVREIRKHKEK
Sequence of KRAS Q61H (P62937 whole entry): as the sequence (P62937 whole entry) above
How it was run: as §1

[18] = KRAS G12C FRET data IC50, Ras-Raf disruption
[19] = KRAS WT FRET data IC50, Ras-Raf disruption
[20] = NRAS G12C FRET data IC50, NRAS G12C
[21] = KRAS G12S FRET data IC50, Ras-Raf disruption
[22] = KRAS G12V FRET data IC50, Ras-Raf disruption
[23] = KRAS G13D FRET data IC50, Ras-Raf disruption
[24] = KRAS G13C FRET data IC50, Ras-Raf disruption
[25] = KRAS G12D FRET data IC50, Ras-Raf disruption
[26] = read-out: H358 Cell Viability assay data IC50, K-Ras G12C, 5-day treatment
[27] = K-Ras G12D, 5-day treatment, read-out: AsPC-1 Cell Viability assay data IC50
[28] = K-Ras G12C, 5-day treatment, read-out: H358 Cell Viability assay data IC50

Sequence of KRAS G12C (P01116 1-169 isoform P01116-2 G12C limits assumed): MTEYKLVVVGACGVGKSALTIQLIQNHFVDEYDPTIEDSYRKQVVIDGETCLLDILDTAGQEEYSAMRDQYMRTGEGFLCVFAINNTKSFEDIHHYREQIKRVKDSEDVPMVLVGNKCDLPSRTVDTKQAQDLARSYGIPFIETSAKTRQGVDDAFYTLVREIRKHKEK
Sequence of KRAS G12C (P62937 whole entry): as the sequence (P62937 whole entry) above

SMILES: CCn1c(-c2cccnc2[C@H](C)OC)c2c3cc(ccc31)-c1cc(O)cc(c1)C[C@H](NC(=O)[C@H](C(C)C)N(C)C(=O)CN(C)C(=O)[C@H]1CN1)C(=O)N1CCC[C@H](N1)C(=O)OCC(C)(C)C2 (single isomer, unassigned) [Example 42A]
- IC50 [1, 18]: < 10 nM
- IC50 [2, 19]: 10 to 100 nM
- IC50 [3, 20]: < 10 nM
- IC50 [4, 21]: 10 to 100 nM
- IC50 [5, 22]: 10 to 100 nM
- IC50 [6, 23]: 10 to 100 nM
- IC50 [7, 24]: < 10 nM
- IC50 [8, 25]: 10 to 100 nM
- IC50 [9, 26]: < 10 nM
- EC50 [10]: < 5 µM

SMILES: CCn1c(-c2cccnc2COC)c2c3cc(ccc31)-c1cc(O)cc(c1)C[C@H](NC(=O)[C@H](C(C)C)N(C)C(=O)CCNC(=O)NCCCl)C(=O)N1CCC[C@H](N1)C(=O)OCC(C)(C)C2 [Example 25]
- IC50 [9, 26]: > 10000 nM

SMILES: CO[C@H]1C[C@@H]2CC[C@@H](C)[C@@](O)(O2)C(=O)C(=O)N2CCCC[C@H]2C(=O)O[C@H]([C@H](C)C[C@@H]2CC[C@@H](OC(=O)NCc3cnc(N4CCN(c5ncc(C(=O)NCCOCCOCCOCCOCCC(=O)N6CCc7cc(Cn8nc(-c9ccc%10oc(N)nc%10c9)c9c(N)ncnc98)ccc7C6)c(N)n5)CC4)nc3)[C@H](OC)C2)C[C@@H](OC)[C@H](C)/C=C(\C)[C@@H](O)[C@@H](OC)C(=O)[C@H](C)C[C@H](C)/C=C/C=C/C=C/1C [Example 106]
- IC50 [11]: 3.16 to 31.6 nM
- IC50 [12]: > 1000 nM

SMILES: CO[C@H]1C[C@@H]2CC[C@@H](C)[C@@](O)(O2)C(=O)C(=O)N2CCCC[C@H]2C(=O)O[C@H]([C@H](C)C[C@@H]2CC[C@@H](OC(=O)NCc3cnc(N4CCN(c5ncc(C(=O)N(C)CCOCCOCCOCCOCCC(=O)N6CCc7cc(Cn8nc(-c9ccc%10oc(N)nc%10c9)c9c(N)ncnc98)ccc7C6)c(N)n5)CC4)nc3)[C@H](OC)C2)C[C@@H](OC)[C@H](C)/C=C(\C)[C@@H](O)[C@@H](OC)C(=O)[C@H](C)C[C@H](C)/C=C/C=C/C=C/1C [Example 107]
- IC50 [11]: > 1000 nM
- IC50 [12]: > 1000 nM

SMILES: CO[C@H]1C[C@@H]2CC[C@@H](C)[C@@](O)(O2)C(=O)C(=O)N2CCCC[C@H]2C(=O)O[C@H]([C@H](C)C[C@@H]2CC[C@@H](OC(=O)NCc3cnc(N4CCN(C(=O)CCOCCN5CCN(c6ncc(C(=O)N7CCc8cc(Cn9nc(-c%10cnc%11[nH]ccc%11c%10)c%10c(N)ncnc%109)ccc8C7)cn6)CC5)[C@@H](C(=O)O)C4)nc3)[C@H](OC)C2)CC(=O)[C@H](C)/C=C(\C)[C@@H](O)[C@@H](OC)C(=O)[C@H](C)C[C@H](C)/C=C/C=C/C=C/1C [Example 132]
- IC50 [11]: ≤ 3.16 nM
- IC50 [12]: 3.16 to 31.6 nM

SMILES: CCn1c(-c2cccnc2[C@H](C)OC)c2c3cc(ccc31)-c1cc(O)cc(c1)C[C@H](NC(=O)[C@H](C(C)C)N(C)C(=O)CN(C)C(=O)[C@H]1N[C@@H]1C1CC1)C(=O)N1CCC[C@H](N1)C(=O)OCC(C)(C)C2 [Example 136]
- IC50 [1, 18]: 10 to 100 nM
- IC50 [4, 21]: 10 to 100 nM
- IC50 [9, 26]: < 10 nM
- EC50 [10]: < 5 µM

SMILES: CCn1c(-c2cccnc2[C@H](C)OC)c2c3cc(ccc31)-c1cc(O)cc(c1)C[C@H](NC(=O)[C@H](C(C)C)N(C)C(=O)CN(C)C(=O)[C@H]1CN1CCOC)C(=O)N1CCC[C@H](N1)C(=O)OCC(C)(C)C2 (some centres unmarked) [Example 159]
- IC50 [1, 18]: 10 to 100 nM
- IC50 [2, 19]: 10 to 100 nM
- IC50 [3, 20]: < 10 nM
- IC50 [4, 21]: 10 to 100 nM
- IC50 [5, 22]: 10 to 100 nM
- IC50 [6, 23]: 100 to 1000 nM
- IC50 [7, 24]: 10 to 100 nM
- IC50 [8, 25]: 100 to 1000 nM
- IC50 ([13]; read-out: AsPC-1 Cell Viability assay data IC50, K-Ras G12D, 5-day treatment): 100 to 1000 nM
- IC50 [9, 26]: < 10 nM

SMILES: CCn1c(-c2cccnc2[C@H](C)OC)c2c3cc(ccc31)-c1cc(O)cc(c1)C[C@H](NC(=O)[C@H](C(C)C)N(C)C(=O)[C@@]1(C)CCCN1C(=O)[C@@H]1CN1)C(=O)N1CCC[C@H](N1)C(=O)OCC(C)(C)C2 [Example 241]
- IC50 [13, 27]: 100 to 1000 nM
- IC50 [9, 28]: < 10 nM

SMILES: CCn1c(-c2cccnc2[C@H](C)OC)c2c3cc(ccc31)-c1cc(cc(C(F)F)c1)C[C@H](NC(=O)[C@H](C1CCCC1)N1CC[C@]3(CCN(C(=O)[C@@H]4N[C@@H]4C4CC4)C3)C1)C(=O)N1CCC[C@H](N1)C(=O)OCC(C)(C)C2 [Example 318]
- IC50 ([1]; Ras-Raf disruption, read-out: KRAS G12C FRET data IC50): 100 to 1000 nM
- IC50 ([2]; Ras-Raf disruption, read-out: KRAS WT FRET data IC50): 100 to 1000 nM
- IC50 [14]: 1 to 10 µM
- IC50 ([3]; NRAS G12C, read-out: NRAS G12C FRET data IC50): 1000 to 10000 nM
- IC50 ([4]; Ras-Raf disruption, read-out: KRAS G12S FRET data IC50): 1000 to 10000 nM
- IC50 [15]: 1 to 10 µM
- IC50 ([5]; Ras-Raf disruption, read-out: KRAS G12V FRET data IC50): 1000 to 10000 nM
- IC50 [16]: 1 to 10 µM
- IC50 ([6]; Ras-Raf disruption, read-out: KRAS G13D FRET data IC50): 1000 to 10000 nM
- IC50 [17]: 100 to 1000 nM
- IC50 ([7]; Ras-Raf disruption, read-out: KRAS G13C FRET data IC50): 100 to 1000 nM
- IC50 ([8]; Ras-Raf disruption, read-out: KRAS G12D FRET data IC50): 1000 to 10000 nM
- IC50 [13, 27]: 100 to 1000 nM
- IC50 [9, 28]: 100 to 1000 nM
